The values that follow come from US7482358B2, “Imidazoline compounds” (Banyu Pharmaceutical Co., Ltd., priority 2000, dated 2009).

One series has as its target T1, human NPY Y5 receptor (Homo sapiens, UniProt Q15761).
T1 construct: expressed in transfected cells; host or cells: COS-7, CHO and LM(tk-)
T1 sequence (Q15761 1-445): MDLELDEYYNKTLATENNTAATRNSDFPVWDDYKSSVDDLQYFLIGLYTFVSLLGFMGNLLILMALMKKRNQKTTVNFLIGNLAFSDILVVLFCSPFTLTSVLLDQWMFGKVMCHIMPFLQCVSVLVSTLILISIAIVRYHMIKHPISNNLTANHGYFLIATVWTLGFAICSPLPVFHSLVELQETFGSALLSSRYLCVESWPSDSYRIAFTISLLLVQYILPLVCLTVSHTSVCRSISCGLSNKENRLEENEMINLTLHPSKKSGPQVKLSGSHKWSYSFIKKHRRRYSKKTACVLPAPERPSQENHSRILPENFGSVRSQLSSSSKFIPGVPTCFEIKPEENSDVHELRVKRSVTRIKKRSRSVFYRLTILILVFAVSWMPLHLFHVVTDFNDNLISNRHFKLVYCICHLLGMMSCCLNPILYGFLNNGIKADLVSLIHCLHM
Kind of series: NPY binding inhibition test ([125I] peptide YY binding to membranes of cells expressing NPY Y5 receptor). Conditions: against specific [125I] peptide YY binding, 25° C., 2 hours; read-out: IC50, inhibitory activities on NPY receptor binding.

Series [1] is described as follows: Test for pharmacokinetics. The series is classed as in vivo. Conditions: male SD rats, overnight fasting, oral or intravenous. How it is done: Pharmacological Test 3 (Test for Pharmacokinetics)
The tested compound was administered orally or intravenously to male SD rats (7-10 weeks old, 200-400 g) under overnight fasting condition, and about 100 μL of blood was taken from tail vein using a heparinized capillary at predefined time points. The blood samples were separated by centrifuge (4° C., 6,000 rpm, for 10 minutes) to obtain plasma. To the plasma, 3-fold volume of ethanol containing the internal standard substances was added and the mixture was stirred, then left at −20° C. for 20 minutes, followed by centrifugation (4° C., 10,000 rpm for 10 minutes). The supernatant was analyzed by LC/MS/MS and then the concentration of the test compound in plasma was measured by the relative calibration curve method.

Series [2] is described as follows: Brain and cerebrospinal fluid penetration test. Particulars: 2 hours after oral administration (10 mg/kg), rat; for concentration at 2 h: male, Sprague-Dawley. The series is classed as in vivo, male SD rats. As for the experimental part:
Pharmacological Test 4 (Brain and Cerebrospinal Fluid Penetration Test)
The tested compound was administered orally or intravenously to male SD rats (7-10 weeks old, 200-400 g). The rats anesthetized with ether, and the all blood were taken at predefined time points with a heparinized syringe from the abdominal aorta. Further, the rats were cut the skin of occipital region of head and inserted a 30 G dental needle between cervical vertebrae, into subarachnoid cavity. And then, 50-100 μL of cerebrospinal fluid was collected in a 1 mL syringe through a tube connected with the 30G dental needle, followed by taking out the brain. To the plasma obtained from the centrifuged blood sample (4° C., 6,000 rpm, for 10 minutes), 3-fold volume of ethanol including the internal standard substances was added and the mixture was stirred. To the brain sample, 2 mL of water was added and the mixture was homogenized. To an aliquot of the homogenized mixture, 3-fold volume of ethanol including the internal standard substances was added, followed by stirring. To the cerebrospinal fluid, 3-fold volume of ethanol containing the internal standard substances was added, followed by stirring. The above samples were left at −20° C. for 20 minutes and separated by centrifuge (4° C., 12,000 g, for 10 minutes). The supernatant was analyzed by LC/MS/MS and then each concentration in plasma, brain and cerebrospinal fluid was measured by the relative calibration curve method.

Read-outs that look alike come from different tables or passages of the source.

The IC50 is the concentration that inhibits the measured activity by half. Usually melting point stands for the temperature, or range, at which the solid turns liquid. In general, half-life refers to how long it takes for the measured level to halve.

Method for human NPY Y5 receptor: These obtained expression vectors were transfected to host cells COS-7, CHO and LM(tk-)(American Type Culture Collection) by cationic lipid method (Confer Proceedings of the National Academy of Sciences of the United States of America, vol. 84:7413(1987)) to give recombinant cells which express NPY Y5 receptor.
A membrane sample prepared from the cells which expressed NPY Y5 receptor was incubated together with a test compound and (^125I) peptide YY (made by NEN) (20,00 cpm) in an assay buffer (25 mM Tris buffer, pH7.4, containing 10 mM magnesium chloride, 1 mM phenylmethylsulfonyl fluoride, 0.1% bacitracin and 0.5% bovine serum albumin) at 25° C. for 2 hours, then filtered through a glass filter GF/C and washed with 5 mM Tris buffer (pH7.4) containing 0.3% BSA. The radioactivity on the glass filter was measured. Nonspecific binding was measured in the presence of 1 μM peptide YY and a 50% Inhibitory Concentration (IC50) of the test compound against specific peptide YY binding was determined (Confer Endocrinology, vol. 131: 2090(1992)).

With `N#Cc1cccc(C2=NC(c3cccc(F)c3)(c3cccc(F)c3)CN2)c1` [Example 5-1, 2-(3-cyanophenyl)-4,4-bis(3-fluorophenyl)-2-imidazoline], at human NPY Y5 receptor, the concentration for half-maximal inhibition (IC50) came out at 2.3 nM.

Compound `Cc1ccc(C2(c3ccccc3)CNC(c3cccc(C#N)c3)=N2)cc1` (stereo not shown) [Example 5-11, 2-(3-cyanophenyl)-4-(4-methylphenyl)-4-phenyl-2-imidazoline] displayed a melting point of 179 to 180 °C.

On to `O=[N+]([O-])c1cccc(C2=NC(c3ccc(F)cc3)(c3ccc(F)cc3)CN2)c1` [Example 5-13, 4,4-bis(4-fluorophenyl)-2-(3-nitrophenyl)-2-imidazoline], for which the melting point lay in the range of 156 to 158 °C.

The compound `CN(C)c1ccc(C2(c3ccccc3)CNC(c3cccc(C#N)c3)=N2)cc1` (stereo not shown) [Example 5-27, 2-(3-cyanophenyl)-4-(4-dimethylaminophenyl)-4-phenyl-2-imidazoline] gave a melting point of 210 to 213 °C.

Compound `c1ccc(C2(c3ccccc3)CNC(c3cnccn3)=N2)cc1` [Example 5-31, 4,4-diphenyl-2-pyrazinyl-2-imidazoline] had a melting point of 183 to 184 °C.

Take `CS(=O)(=O)c1cccc(C2=NC(c3ccc(F)cc3)(c3ccc(F)cc3)CN2)c1` [Example 5-34, 4,4-bis(4-fluorophenyl)-2-(3-methylsulfonylphenyl)-2-imidazoline]: the melting point was in the range of 209 to 212 °C.

Take `N#Cc1cccc(C2=NC(c3ccccc3)(C3CCCCC3)CN2)c1` (stereo not shown) [Example 5-42, 2-(3-cyanophenyl)-4-cyclohexyl-4-phenyl-2-imidazoline]: the melting point was 151 to 152 °C.

In turn, `N#Cc1cccc(C2=NC(c3ccccc3)(C3CCC3)CN2)c1` (stereo not shown) [Example 5-46, 2-(3-cyanophenyl)-4-cyclobutyl-4-phenyl-2-imidazoline] showed a melting point of 117 to 118 °C.

`CC1NC(c2cnccn2)=NC1(c1ccc(F)cc1)c1ccc(F)cc1` (stereo not shown) [Example 7, 4,4-bis(4-fluorophenyl)-5-methyl-2-pyrazinyl-2-imidazoline]: the IC50 at human NPY Y5 receptor was 3.4 nM. For the same compound, the half-life in series [1] (Sprague-Dawley, rat, plasma, read-out: half-life in blood (converted)) was 5.1 h. Moreover, the biological availability ratio in series [1] came to 35%. Further, the cerebral concentration in series [2] is on record as 2.95 nM/g. Also, the concentration at 2 h in series [2] (cerebrospinal fluid, read-out: cerebrospinal concentration) is 32 nM; in series [2] (plasma, read-out: plasma concentration), 730 nM.

For the compound `Fc1ccc(C2(c3ccc(F)cc3)CNC(c3cccc(OC(F)(F)F)c3)=N2)cc1` [Example 9-4, 4,4-bis(4-fluorophenyl)-2-(3-trifluoromethoxyphenyl)-2-imidazoline], the melting point was in the range of 114 to 117 °C.

Compound `Cc1cccc(C2=NC(c3ccc(F)cc3)(c3ccc(F)cc3)CN2)c1` [Example 9-6, 4,4-bis(4-fluorophenyl)-2-(3-methylphenyl)-2-imidazoline] returned a melting point of 148 to 149 °C.

In turn, `Fc1ccc(C2(c3ccc(F)cc3)CNC(c3cccs3)=N2)cc1` [Example 9-7, 4,4-bis(4-fluorophenyl)-2-(2-thienyl)-2-imidazoline] yielded a melting point of 156 to 160 °C.

In turn, `Fc1ccc(C2(c3ccc(F)cc3)CNC(c3ccsc3)=N2)cc1` [Example 9-10, 4,4-bis(4-fluorophenyl)-2-(3-thienyl)-2-imidazoline] showed a melting point of 160 to 163 °C.

As for `N#Cc1ccnc(C2=NC(c3ccc(F)cc3)(c3ccnc(F)c3)CN2)c1` (stereo not shown) [Example 14-2, 2-(4-cyano-2-pyridyl)-4-(4-fluorophenyl)-4-(2-fluoro-4-pyridyl)-2-imidazoline], the melting point was 169 to 171 °C.
